Assay results from patent publication US4115065A, “Saturation analysis of folate compound with selenium-75 labeled folate” (The Radiochemical Centre Limited, priority 1973, dated 1978).
Several values for one entry are separate records, joined by “and”; a condition that tells them apart may be missing. Equal entries are not always repeated.

Key:
β-lactoglobulin [1] = biological target: T1, β-lactoglobulin (Bos taurus, UniProt P02702); test: Example 6: saturation assay, Se75 pteroyl-L-selenomethionine label, N5-methyltetrahydrofolate standards; format: binding; details: 0.5 ng label
Description: (§1) Standard solutions of N^5 -methyltetrahydrofoate containing 0, 0.25, 0.5, 1, 2 and 4 ng in phosphate-albumin buffer (200 μl) were pipetted in assay tubes. Buffer was also added to `total` and `blank` tubes (400 and 300 μl respectively). To each tube was added pteroyl-L-methylselenocysteine-Se75 (0.5 ng, sp. act. ca 0.24 Ci/m.mole) in 100 μl of buffer. Immediately afterwards β-lactoglobulin (100 μg) in 100 μl of buffer was added to all tubes except the blanks. After 60 minutes incubation at room temperature, a suspension of albumin-coated charcoal in buffer (200 μl) was added at 4° C. to all tubes except the totals. The tubes were centrifuged (2000g for 10 minutes) and the supernate was counted for 300 seconds in an NE8312 beta-gamma counter.
(§2) Results are expressed in terms of [formula]
(§3) The protocol of example 4 was used except that Se75-pteroyl-L-selenomethionine (0.5ng, sp. act. ca 2.25 Ci/m.mole) was substituted as label for Se75-pteroyl-L-methylselenocysteine.
Target sequence in this assay (P02702 20-234 limits assumed): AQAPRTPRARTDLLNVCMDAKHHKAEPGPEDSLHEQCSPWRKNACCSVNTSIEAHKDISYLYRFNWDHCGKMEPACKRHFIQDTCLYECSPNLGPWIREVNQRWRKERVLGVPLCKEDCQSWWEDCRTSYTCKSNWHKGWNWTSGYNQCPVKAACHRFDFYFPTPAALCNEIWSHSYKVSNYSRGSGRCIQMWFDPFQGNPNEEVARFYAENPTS

[2] = test system: porcine serum as binding protein; test: Example 7: saturation assay, Se75 pteroyl-L-selenomethionine label, N5-methyltetrahydrofolate standards, porcine serum binder; details: 0.5 ng label, porcine serum 30 μl
Description: as §1, §2, §3
The protocol of example 6 was used except that a solution of porcine serum (30 μl) in buffer (70 μl) was substituted for β-lactoglobulin as binding protein.

[3] = test system: porcine serum as binding protein; test: Example 11: saturation assay, Se75 pteroyl-L-selenomethionine label, folic acid standards, porcine serum binder; details: 0.5 ng label, porcine serum 30 μl
Description: as §1, §2, §3
The protocol of example 6 was used except that folic acid was substituted for N^5 -methyltetrahydrofolate as standard.
The protocol of example 10 was used except that a solution containing 30 μl of porcine serum and 70 μl of buffer was substituted for β-lactoglobulin as binding protein.

[4] = test system: rabbit anti folic acid antiserum; test: Example 13: radioimmunoassay for folic acid, Se75 pteroyl-L-selenomethionine label; format: binding; details: 0.5 ng label
Description: (§4) Standard solutions of folic acid containing 0, 0.25, 0.5, 1, 2 and 4 ng in phosphate-albumin buffer (200 μl) were pipetted into assay tubes. Buffer was also added to `total` and `blank` tubes (400 and 300 μl respectively). To each tube was added Se75-pteroyl-L-methylselenocysteine (0.5 ng, sp. act. ca 0.24 Ci/m.mole) in 100 μl of buffer. Immediately afterwards was added, to all tubes except the blanks, 100 μl of buffer containing 2 μl of a 1/15000 titre rabbit anti folic acid antiserum, raised against a conjugate of folic acid with serum albumin.
(§5) After 60 minutes incubation at room temperature, a suspension of albumin-coated charcoal in buffer (200 μl) was added at 4° C. to all tubes except the totals. The tubes were centrifuged (2000g for 10 minutes) and the supernate was counted for 300 seconds.
The protocol of example 12 was used except that Se75-pteroyl-L-selenomethionine (0.5ng, sp. act. ca 2.25 Ci/m.mole) was substituted for Se-75-pteroyl-L-methylselenocysteine as label

β-lactoglobulin [5] = biological target: T1, β-lactoglobulin; test: Example 4: saturation assay for folates, Se75 pteroyl-L-methylselenocysteine label, N5-methyltetrahydrofolate standards; format: binding; details: 0.5 ng label, β-lactoglobulin 100 μg
Description: as §1, §2
Target sequence in this assay (P02702 20-234 limits assumed): as above

β-lactoglobulin [6] = biological target: T1, β-lactoglobulin; test: Example 5: saturation assay, Se75 pteroyl-L-methylselenocysteine label, folic acid standards; format: binding; details: 0.5 ng label, β-lactoglobulin 100 μg
Description: as §1, §2
Target sequence in this assay (P02702 20-241): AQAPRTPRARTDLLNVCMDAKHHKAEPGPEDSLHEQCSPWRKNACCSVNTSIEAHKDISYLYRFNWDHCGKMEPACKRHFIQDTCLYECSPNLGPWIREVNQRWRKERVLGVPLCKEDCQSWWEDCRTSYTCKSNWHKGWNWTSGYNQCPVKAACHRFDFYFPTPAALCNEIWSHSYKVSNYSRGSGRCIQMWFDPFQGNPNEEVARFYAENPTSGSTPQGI
The protocol of example 4 was used except that folic acid was used as the standard instead of N^5 -methyltetrhydrofolate

[7] = test system: porcine serum as binding protein; test: Example 8: saturation assay, Se75 pteroyl-L-methylselenocysteine label, N5-methyltetrahydrofolate standards, porcine serum binder; details: 0.5 ng label, porcine serum 30 μl
Description: as §1, §2
(§6) The protocol of example 4 was used except that a solution (100 μl) containing 30 μl of porcine serum and 70 μl of buffer was used instead of β-lactoglobulin as binding protein.

[8] = test system: porcine serum as binding protein; test: Example 9: saturation assay, Se75 pteroyl-L-methylselenocysteine label, folic acid standards, porcine serum binder; details: 0.5 ng label, porcine serum 30 μl
Description: as §1, §2, §6
The protocol of example 8 was used except that folic acid was substituted for N^5 -methyltetrahydrofolate as standard

[9] = test system: rabbit anti folic acid antiserum; test: Example 12: radioimmunoassay for folic acid, Se75 pteroyl-L-methylselenocysteine label; format: binding; details: 0.5 ng label, 2 μl rabbit anti folic acid antiserum
Description: as §4, §5

[10] = 0.25 ng N5 methyltetrahydrofolate
[11] = 0.5 ng N5 methyltetrahydrofolate

SMILES: C[75Se]CC[C@H](NC(=O)c1ccc(NCc2cnc3nc(N)[nH]c(=O)c3n2)cc1)C(=O)O [Se75-pteroyl-L-selenomethionine, N-Pteroyl-L-selenomethionine-Se75]
- Percent of labelled folate bound (β-lactoglobulin [1]; 0 ng N5 methyltetrahydrofolate): 49.9%
- Percent of labelled folate bound (β-lactoglobulin [1]; [10]): 39.3% and 36.1%
- Percent of labelled folate bound (β-lactoglobulin [1]; [11]): 35.9% and 37.3%
- Percent of labelled folate bound (β-lactoglobulin [1]; 1 ng N5 methyltetrahydrofolate): 32.6% and 33.0%
- Percent of labelled folate bound (β-lactoglobulin [1]; 2 ng N5 methyltetrahydrofolate): 25.9%
- Percent of labelled folate bound (β-lactoglobulin [1]; 4 ng N5 methyltetrahydrofolate): 25.4% and 24.1%
- Percent of labelled folate bound ([2]; 0 mg N5 methyltetrahydrofolate): 36.4%
- Percent of labelled folate bound ([2]; 4 ng N5 methyltetrahydrofolate): 15.5% and 15.6%
- Percent of labelled folate bound ([2]; 0.25 mg N5 methyltetrahydrofolate): 21.3%
- Percent of labelled folate bound ([2]; 0.5 mg N5 methyltetrahydrofolate): 17.2% and 17.1%
- Percent of labelled folate bound ([2]; 1 mg N5 methyltetrahydrofolate): 20.7% and 18.5%
- Percent of labelled folate bound ([2]; 2 mg N5 methyltetrahydrofolate): 19.3% and 17.2%
- Percent of labelled folate bound ([3]; 0 ng folic acid): 35.7%
- Percent of labelled folate bound ([3]; 0.25 ng folic acid): 20.3% and 21.1%
- Percent of labelled folate bound ([3]; 0.5 ng folic acid): 18.4% and 20.9%
- Percent of labelled folate bound ([3]; 1 ng folic acid): 16.8% and 17.3%
- Percent of labelled folate bound ([3]; 2 ng folic acid): 13.0% and 13.9%
- Percent of labelled folate bound ([3]; 4 ng folic acid): 12.6% and 15.2%
- Percent of labelled folate bound ([4]; 0 ng folic acid): 42.2%
- Percent of labelled folate bound ([4]; 0.25 ng folic acid): 25.7% and 27.6%
- Percent of labelled folate bound ([4]; 0.5 ng folic acid): 22.1% and 19%
- Percent of labelled folate bound ([4]; 1 ng folic acid): 20.8% and 21.9%
- Percent of labelled folate bound ([4]; 2 ng folic acid): 16.7% and 15.5%
- Percent of labelled folate bound ([4]; 4 ng folic acid): 16% and 13.7%

SMILES: C[75Se]C[C@H](NC(=O)c1ccc(NCc2cnc3nc(N)[nH]c(=O)c3n2)cc1)C(=O)O [pteroyl-L-methylselenocysteine-Se75, N-Pteroyl-Se-methyl-L-selenocysteine-Se75]
- percentage of labelled folate bound (β-lactoglobulin [5]; 0 ng N5 methyltetrahydrofolate, 60 minutes room temperature): 94%
- percentage of labelled folate bound (β-lactoglobulin [5]; [10]): 81.8% and 78.0%
- percentage of labelled folate bound (β-lactoglobulin [5]; [11]): 81.4%
- percentage of labelled folate bound (β-lactoglobulin [5]; 1 ng N5 methyltetrahydrofolate): 78.3% and 78.6%
- percentage of labelled folate bound (β-lactoglobulin [5]; 2 ng N5 methyltetrahydrofolate): 51.3% and 58.0%
- percentage of labelled folate bound (β-lactoglobulin [5]; 4 ng N5 methyltetrahydrofolate): 44.4% and 34.1%
- percentage of labelled folate bound (β-lactoglobulin [6]; 0 ng folic acid): 95.5%
- percentage of labelled folate bound (β-lactoglobulin [6]; 0.25 ng folic acid): 86.1% and 85.6%
- percentage of labelled folate bound (β-lactoglobulin [6]; 0.5 ng folic acid): 67.7% and 82.5%
- percentage of labelled folate bound (β-lactoglobulin [6]; 1 ng folic acid): 45.5% and 41.4%
- percentage of labelled folate bound (β-lactoglobulin [6]; 2 ng folic acid): 28.1% and 32.6%
- percentage of labelled folate bound (β-lactoglobulin [6]; 4 ng folic acid): 10.4%
- Percent of labelled folate bound ([7]; 0 ng N5 methyltetrahydrofolate): 89.3%
- Percent of labelled folate bound [7, 10]: 61.4% and 52.0%
- Percent of labelled folate bound [7, 11]: 43.3% and 48.1%
- Percent of labelled folate bound ([7]; 1 ng N5 methyltetrahydrofolate): 41.2% and 38.9%
- Percent of labelled folate bound ([7]; 2 ng N5 methyltetrahydrofolate): 40.9% and 39.3%
- Percent of labelled folate bound ([7]; 4 ng N5 methyltetrahydrofolate): 34.5% and 31.0%
- Percent of labelled folic acid bound to porcine serum ([8]; 0 ng folic acid): 92.7%
- Percent of labelled folic acid bound to porcine serum ([8]; 0.25 ng folic acid): 67.1% and 68.7%
- Percent of labelled folic acid bound to porcine serum ([8]; 0.5 ng folic acid): 60.9% and 43%
- Percent of labelled folic acid bound to porcine serum ([8]; 1 ng folic acid): 26.2% and 31.3%
- Percent of labelled folic acid bound to porcine serum ([8]; 2 ng folic acid): 28.0% and 28.3%
- Percent of labelled folic acid bound to porcine serum ([8]; 4 ng folic acid): 9% and 2.6%
- Percent of labelled folate bound to antiserum ([9]; 0 ng folic acid): 97.6%
- Percent of labelled folate bound to antiserum ([9]; 0.25 ng folic acid, listed as Se75-pteroyl-L-methylselenocysteine): 72.4% and 90.9%
- Percent of labelled folate bound to antiserum ([9]; 0.5 ng folic acid, listed as Se75-pteroyl-L-methylselenocysteine): 52.5% and 70.3%
- Percent of labelled folate bound to antiserum ([9]; 1 ng folic acid, listed as Se75-pteroyl-L-methylselenocysteine): 50.1% and 35.3%
- Percent of labelled folate bound to antiserum ([9]; 2 ng folic acid, listed as Se75-pteroyl-L-methylselenocysteine): 20.1% and 29.6%
- Percent of labelled folate bound to antiserum ([9]; 4 ng folic acid, listed as Se75-pteroyl-L-methylselenocysteine): 20.1% and 12.8%
